PMC6627486, “Ipomoeassin F Binds Sec61α to Inhibit Protein Translocation” (Journal of the American Chemical Society, 2019)
Where two headings read alike, the source gives them in different places.

Assays:
[1] = AlamarBlue cytotoxicity assay, MCF-10A; assay type: cell-based, human; details: human
Procedure: AlamarBlue Cytotoxicity Assay
MDA-MB-231, MCF-10A and HCT116. Viable cells were counted with a hemocytometer immediately before each experiment . Experiments were done in triplicate. First, 100 μL of MDA-MB-231 cells or MCF-10A cells at the density of 50,000 cells/mL was seeded in a 96-well plate (5,000 cells/well) and then incubated at 37 °C and 5% CO2 for 24 h. The compounds were dissolved in DMSO (dimethyl sulfoxide) to make drug stocks (10 mM). The stock solutions were diluted with the complete DMEM high glucose culture medium to make a series of gradient fresh working solutions right before each test. Subsequently, the cells were treated with 100 μL of the freshly made gradient working solution in a total volume of 200 μL/well for 72 h. After that, the media were discarded and 200 μL of the fresh complete medium containing 10% of AlamarBlue (resazurin) stock solution was added to each well. The plate was then incubated at 37 °C and 5% CO2 for another 3 h. Emission of each well at 620 nm was detected by a microplate reader (BioTek Synergy H1) at excitation 580 nm. […]
Microplate Reader. The percentage of viability compared to the negative control (DMSO-treated cells) […]
was determined. […]

[2] = test system: TNF production by RAW264.7 cells; experiment: TNF production washout assay in LPS-stimulated RAW264.7 cells; assay type: cell-based; details: 250 nM ipomoeassin F, 125 ng/mL mycolactone; for TNF production after 24 h washout: 1 h incubation, washed, 24 h recovery, then LPS 4 h; for TNF production, direct assay: 1 h preincubation, then 100 ng/mL LPS 4 h
Procedure: The reversibility of the inhibition of secreted protein production by ipomoeassin F was determined by following the production of TNF in RAW264.7 cells as described before.22 Briefly, RAW264.7 cells were maintained at 37 °C and 5% CO2 in high glucose DMEM (Merck), supplemented with 10% heat-inactivated FBS (GIBCO). Cells were plated into 24 well plates at a concentration of 1 x 10^5/ml 24 hour prior to assay, then incubated for 1 hour in the presence or absence of 125 ng/ml mycolactone, 250 nM Ipomoeassin F or DMSO carrier. Cells were either stimulated directly with 100 ng/ml TLR-grade LPS (Enzo) or washed 3 times with medium and incubated 24 hour, then stimulated with LPS. In each case, cells were incubated with LPS for 4 hour then the supernatants were removed. The concentration of TNF in supernatants was quantified by ELISA (eBioscience).

HEK T86M = experiment: Alamar Blue viability, HEK293 expressing Sec61α T86M; assay type: cell-based, human; details: read-out: cell viability IC50
Procedure: (§1) AlamarBlue Cytotoxicity Assay […]
HCT116 and HEK293T. Viable cells were counted using an automated cell counter (BioRad TC20) before each experiment. Experiments were performed either in quadruplicate or duplicate sets. First 100µ l of HCT116 or HEK293T cells at a density of 25,000 cells/m l was seeded in black wall, clear bottom, 96-well plates (2500 cells/well) (Viewplate-96 Perkin Elmer). HEK293 FRT Trex cells were seeded in complete medium supplemented to 1 μg/ml Doxycycline to induce expression of Sec61a constructs. Cells were then incubated at 37 °C and 5% CO2 for 24 h. The compounds were dissolved in DMSO to make drug stocks (10 mM). The stock solutions were diluted with the complete DMEM or McCoy’s 5A culture media supplemented with DMSO to make a series of gradient fresh working solutions at equal DMSO percentage immediately prior to each test. Subsequently, the cells were treated with 25 μl of the freshly made gradient in a total volume of 125 μl/well for 72 h. After that, the media were supplemented with 10% of AlamarBlue (resazurin) stock solution. The plate was then incubated at 37 °C and 5% CO2 for another 4 h. Emission of each well at 620 nm was detected by a microplate reader (Perkin Elmer EnSpire) at excitation 580 nm. The percentage of viability compared to the negative control (DMSO -treated cells) was determined. […]

HEK S82P = experiment: Alamar Blue viability, HEK293 expressing Sec61α S82P; assay type: cell-based, human; details: read-out: cell viability IC50
Procedure: as §1
Compounds were diluted from a DMSO stock into culture medium as described above. Cells were treated for 96 h, then viability measured with AlamarBlue, detected using the conditions described but with a BMG Fluostar Optima Microplate Reader. The percentage of viability compared to the negative control (DMSO-treated cells) was determined. GraphPad Prism 6 software was used to make a plot of % viability versus sample […]
HCT116 and HEK293T. Viable cells were counted using an automated cell counter (BioRad TC20) before each experiment. Experiments were performed either in quadruplicate or duplicate sets. First 100µ l of HCT116 or HEK293T cells at a density of 25,000 cells/m l was seeded in black wall, clear bottom, 96-well plates (2500 cells/well) (Viewplate-96 Perkin Elmer). HEK293 FRT Trex cells were seeded in complete medium supplemented to 1 μg/ml Doxycycline to induce expression of Sec61a constructs. Cells were then incubated at 37 °C and 5% CO2 for 24 h. The compounds were dissolved in DMSO to make drug stocks (10 mM). […] Emission of each well at 620 nm was detected by a microplate reader (Perkin Elmer EnSpire) at excitation 580 nm. The percentage of viability compared to the negative control (DMSO -treated cells) was determined. […]

Sec61α = experiment: Competition with CT7 photo-affinity labeling of Sec61α in sheep rough microsomes; assay type: binding; details: 10 μM compound, 100 nM CT7, sheep rough microsomes
Procedure: MDA-MB-231 cells were seeded on fibronectin-coated coverslips at 70% confluency in a 48-well plate and cultured at 37 °C and 5% CO2. After 24 h, culture medium was replaced with fresh medium containing a 20 µM competitor or an equal volume of DMSO vehicle for 30 min at 37 °C and 5% CO2, followed by addition of 0.2 µM (final concentration) fluorescent probe 12. After 1 h incubation at 37 °C and 5% CO2, the coverslips were mounted onto a glass slide with a mounting medium with or without 0.5 µg/ml DAPI.
The fluorescent images were acquired with a confocal microscope (Leica TCS SP5) using 405 nm excitation and 562 nm excitation. For the ER co-localization studies, 1 uM ER-Tracker™ Blue-White DPX was added to the medium after 1 h incubation with probe 12. After 5 min incubation, the coverslips were mounted onto a glass slide and the images were acquired as described above.
CT7 photo-affinity labeling and click chemistry were done as previously described.14 Briefly, SRMs (sheep rough microsomes, isolated as described in reference15) containing 100 nM Sec61 were treated with 10 µM ipomoeassin F/mycolactone or 1% DMSO for 30 min at 0°C, followed by incubation with 100 nM CT7 for 10 min RT. Samples were then photolyzed for 10 min and crosslinked proteins were detected by click chemistry, SDS-PAGE, and in-gel fluorescent scanning (Typhoon Trio, GE Healthcare). […]

| SMILES | IC50 ([1]; 72 h) | TNF production after 24 h washout [2] | TNF production, direct assay [2] | IC50 at 72 h [1] | IC50 (HEK T86M; Homo sapiens, HEK293, 72 h) | IC50 (HEK S82P; Homo sapiens, HEK293, 72 h) | competition with CT7 photo-cross-linking to Sec61α (Sec61α) | IC50 (HEK T86M; 72 h) | IC50 (HEK S82P; 72 h) |
| --- | --- | --- | --- | --- | --- | --- | --- | --- | --- |
| C/C=C(\C)C(=O)O[C@H]1[C@H](OC(=O)/C=C/c2ccc(OCc3cn(CCOCCOCCOCCNC(=O)CCCC[C@@H]4SC[C@@H]5NC(=O)N[C@@H]54)nn3)cc2)[C@@H](O)[C@@H]2O[C@H]3[C@H](O[C@@H](CCCCC)CCCCCCC(=O)CCC(=O)OC[C@H]1O2)O[C@H](C)[C@H](OC(C)=O)[C@@H]3O [compound 5] | 21.7 nM | – | – | – | – | – | – | – | – |
| C/C=C(\C)C(=O)O[C@@H]1[C@@H](O)[C@@H]2O[C@H]3[C@H](O[C@@H](CCCCC)CCCCCCC(=O)CCC(=O)OC[C@@H](O2)[C@H]1OC(=O)/C=C/c1ccccc1)O[C@H](C)[C@H](OC(C)=O)[C@@H]3O [ipomoeassin F] | – | restored, albeit at a reduced level | similarly blocked TNF production | 5.3 nM | 13.5 ± 0.6 nM | > 10000 nM | similarly potent competition | – | – |
| CC(=C\C=C\C(C)=C\[C@H](O)[C@@H](O)C[C@H](C)O)/C=C(C)/C=C/C(=O)O[C@H]1CCCC(=O)O[C@@H]([C@@H](C)C/C(C)=C/[C@@H](C)[C@H](O)C[C@@H](C)O)C/C=C(\C)C[C@@H]1C [mycolactone, reference compound] | – | not to be restored | completely block TNF production | – | – | – | efficiently competes with CT7 | 2470 nM | 1160 nM |
